What follows are compounds tested against T1, human TNIK (N-terminal segment, TNIK_N) (Homo sapiens, UniProt Q9UKE5) (assay: TNIK kinase assay (mobility shift)). Conditions: 25 μM ATP, 1 h at room temperature.
T1 construct: made in house; host or cells: Sf21 insect cells (baculovirus)
Type: biochemical
Source text: A cDNA encoding the N-terminal segment (TNIK_N, residues 1-314) containing the kinase domain of human TNIK (NM_015028.1) was amplified from cDNA mixture synthesized from human tissue (Biochain) by PCR using the following primers: 5′-[…]-3′ ([SEQ ID NO:1]: forward primer, the underlined nucleotides indicates the location of a EheI site); 5′-[…]-3′ ([SEQ ID NO:2]: reverse primer, the underlined nucleotides indicates the location of a NotI site). The cDNA was subcloned into baculovirus transfer vector pFastBac_GSTb that includes protease cleavage site and glutathione S-transferase purification tag (GST-tag). The plasmid was purified and the insertion of the pFastBac_GSTb-TNIK_N was confirmed by DNA sequencing. Then E. coli DH10Bac competent cells were transformed with the plasmid to prepare the recombinant bacmid according to the instructions for the Bac-to-Bac™ baculovirus expression systems (Invitrogen). The Sf9 cells were transfected with the recombinant bacmid containing pFastBac_GSTb-TNIK_N using Cellfectin Reagent (Invitrogen) in SF-900II serum free media (Invitrogen). The viral supernatant was collected from the medium 72 h after transfection. The virus was amplified three times by infecting actively growing Sf9 or Sf21 cells in Grace's insect media (Invitrogen) supplemented with 10% FCS and an antibiotic-antimycotic reagent (Invitrogen) for 72 h at 27° C. in T-flask or roller bottles. The titer of amplified TNIK_N virus was estimated at 2.36×10^8 pfu/ml by using BacPAK™ Baculovirus Rapid Titer kit (Clontech).
Log-phase Sf21 cells (2×10^6 cells/ml) in the Grace's insect media were infected with the recombinant baculovirus at MOI of 3.0 and incubated in roller bottles (250 ml media per bottle) for 72 h at 27° C., after which, the cells were collected by centrifugation, and the cell pellet washed with cold PBS and kept at −80° C. until purification. The following purification procedures were carried out at 4° C. The frozen cells were thawed on ice and lysed in lysis buffer (50 mM Tris-HCl, pH 7.5, 150 mM NaCl, 1% Nonidet P-40, 5 mM DTT, 0.5 mM EDTA, 0.5 mM EGTA) supplemented with 1 mM phenylmethansulfonylfluoride, 2 μg/ml leupeptin, 2 μg/ml aprotinin, 1 mM NaF, 100 μM sodium orthovanadate, and 1 μM cantharidin by sonication. The suspended lysate was cleared by centrifugation at 9000 g for 20 min and the supernatant was incubated for 1 h with glutathione Sepharose beads (GE Healthcare). The beads were suspended in buffer-H (50 mM Tris-HCl, pH 7.5, 1 M NaCl, 1 mM DTT, 0.5 mM EDTA, 0.5 mM EGTA and 0.05% Brij35) and washed with buffer-H followed by buffer-L (50 mM Tris-HCl, pH 7.5, 150 mM NaCl, 1 mM DTT, 0.5 mM EDTA, 0.5 mM EGTA, 0.05% Brij35) in an Econo-pack column (BIO-RAD). The bound TNIK_N was eluted with elution buffer (50 mM Tris-HCl, pH 8.0, 150 mM NaCl, 1 mM DTT, 10% glycerol, 0.5 mM EDTA, 0.5 mM EGTA and 5 mM reduced glutathione). The eluted fractions were collected and determined the protein concentration by Bradford reagent (BIO-RAD). The TNIK_N fractions were pooled and desalted using 10DG column (BIORAD) equilibrated with the storage buffer (50 mM Tris-HCl, pH 7.5, 150 mM NaCl, 1 mM DTT, 10% glycerol, 0.05% Brij35). The purified TNIK_N was characterized by electrophoresis using 4-20% polyacrylamide gels and matrix-assisted laser desorption/ionization reflection time-of-flight (MALDI-TOF) mass spectrometry on a Voyager-DE RP MALDI/TOF (Applied Biosystems). TNIK_N was confirmed by the molecular weight and MASCOT Peptide Mass Fingerprint.
The kinase assays were conducted in a 20 μl volume using 384-well plates (Greiner). The reaction mixture consists of compound or vehicle (1% DMSO), 0.08 ng/μl TNIK_N, 1 μM FITC-labeled substrate peptides, FITC-x-Lys-Tyr-Lys-Thr-Leu-Arg-Gln ([SEQ ID NO.3], x: ε-aminocaproic acid), 20 mM Hepes, pH 7.5, 0.01% Triton X-100, 5 mM MgCl2, 25 μM ATP and 2 mM DTT. As blank, TNIK_N was excluded from the reaction mixture of vehicle (1% DMSO). […]

T1 sequence (Q9UKE5 1-314): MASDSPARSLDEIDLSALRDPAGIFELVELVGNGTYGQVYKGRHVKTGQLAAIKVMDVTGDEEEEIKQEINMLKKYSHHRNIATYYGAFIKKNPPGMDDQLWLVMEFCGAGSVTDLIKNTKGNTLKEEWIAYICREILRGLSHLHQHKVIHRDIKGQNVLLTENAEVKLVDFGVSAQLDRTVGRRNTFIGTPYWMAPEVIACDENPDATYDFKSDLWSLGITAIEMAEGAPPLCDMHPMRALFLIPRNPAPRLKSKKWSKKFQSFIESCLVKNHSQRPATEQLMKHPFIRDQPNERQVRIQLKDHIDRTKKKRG

Compound	IC50
Cc1cccc(C(=O)Nc2sc(Nc3ccccc3)nc2C(N)=O)c1 [Compound 2, 5-(3-methylbenzamido)-2-(phenylamino)thiazole-4-carboxamide]	40 nM
NC(=O)c1nc(Nc2ccccc2)sc1NC(=O)c1ccccc1F [Compound 3, 5-(2-fluorobenzamido)-2-(phenylamino)thiazole-4-carboxamide]	19 nM
COc1ccc(C(=O)Nc2sc(Nc3ccccc3)nc2C(N)=O)cc1 [Compound 4, 5-(4-methoxybenzamido)-2-(phenylamino)thiazole-4-carboxamide]	10 nM
COc1cccc(C(=O)Nc2sc(Nc3ccccc3)nc2C(N)=O)c1 [Compound 5, 5-(3-methoxybenzamido)-2-(phenylamino)thiazole-4-carboxamide]	7700 nM
NC(=O)c1nc(Nc2ccccc2)sc1NC(=O)Cc1cccs1 [Compound 6, 2-(phenylamino)-5-(2-(thiophen-2-yl)acetamido)thiazole-4-carboxamide]	280 nM
CC(C)CC(=O)Nc1sc(Nc2ccccc2)nc1C(N)=O [Compound 7, 5-(3-methylbutanamido)-2-(phenylamino)thiazole-4-carboxamide]	180 nM
NC(=O)c1nc(Nc2ccccc2)sc1NC(=O)CC1CCCC1 [Compound 8, 5-(2-cyclopentylacetamido)-2-(phenylamino)thiazole-4-carboxamide]	130 nM
Cc1ccc(Nc2nc(C(N)=O)c(NC(=O)c3ccccc3F)s2)cc1 [Compound 9, 2-(p-toluidino)-5-(2-fluorobenzamido)thiazole-4-carboxamide]	68 nM
CC(=O)Nc1ccc(C(=O)Nc2sc(Nc3ccc(C)cc3)nc2C(N)=O)cc1 [Compound 10, 2-(p-toluidino)-5-(4-acetamidobenzamido)thiazole-4-carboxamide]	14 nM
Cc1ccc(Nc2nc(C(N)=O)c(NC(=O)c3ccccc3Cl)s2)cc1 [Compound 11, 2-(p-toluidino)-5-(2-chlorobenzamido)thiazole-4-carboxamide]	1700 nM
Cc1ccc(Nc2nc(C(N)=O)c(NC(=O)c3cccc(Br)c3)s2)cc1 [Compound 12, 2-(p-toluidino)-5-(3-bromobenzamido)thiazole-4-carboxamide]	1700 nM
Cc1ccc(Nc2nc(C(N)=O)c(NC(=O)c3c(F)cccc3F)s2)cc1 [Compound 13, 2-(p-toluidino)-5-(2,6-difluorobenzamido)thiazole-4-carboxamide]	180 nM
COc1ccc(C(=O)Nc2sc(Nc3ccc(C)cc3)nc2C(N)=O)cc1OC [Compound 14, 2-(p-toluidino)-5-(3,4-dimethoxybenzamido)thiazole-4-carboxamide]	57 nM
Cc1ccc(Nc2nc(C(N)=O)c(NC(=O)c3cccs3)s2)cc1 [Compound 15, 2-(p-toluidino)-5-(thiophene-2-carboxamido)thiazole-4-carboxamide]	31 nM
CCC(CC)C(=O)Nc1sc(Nc2ccc(C)cc2)nc1C(N)=O [Compound 16, 2-(p-toluidino)-5-(2-ethylbutanamido)thiazole-4-carboxamide]	4100 nM
CCNc1nc(C(N)=O)c(NC(=O)c2cc(-c3ccccc3)nc3c(C)cccc23)s1 [Compound 17, 2-(ethylamino)-5-(8-methyl-2-phenylquinoline-4-carboxamido)thiazole-4-carboxamide]	3100 nM

Compound	IC50
Cc1ccc(C(=O)Nc2sc(Nc3ccccc3)nc2C(N)=O)cc1 [Compound A1, 5-(4-methylbenzamido)-2-(phenylamino)thiazole-4-carboxamide]	6 nM
NC(=O)c1nc(Nc2ccccc2)sc1NC(=O)c1ccc(F)cc1 [Compound A2, 5-(4-fluorobenzamido)-2-(phenylamino)thiazole-4-carboxamide]	17 nM
CC(=O)Nc1ccc(C(=O)Nc2sc(Nc3ccc(F)cc3)nc2C(N)=O)cc1 [Compound A4, 5-(4-acetamidobenzamido)-2-(4-fluorophenyl-amino)-thiazole-4-carboxamide]	18 nM
CC(=O)Nc1ccc(C(=O)Nc2sc(Nc3ccccc3C)nc2C(N)=O)cc1 [Compound A9, 2-(o-toluidino)-5-(4-acetamidobenzamido) thiazole-4-carboxamide]	18 nM
COc1ccc(Nc2nc(C(N)=O)c(NC(=O)c3ccc(NC(C)=O)cc3)s2)cc1 [Compound A11, 5-(4-acetamidobenzamido)-2-(4-methoxyphenyl-amino)thiazole-4-carboxamide]	14 nM
CC(=O)Nc1ccc(C(=O)Nc2sc(Nc3ccc(N)cc3)nc2C(N)=O)cc1 [Compound A19, 5-(4-acetamidobenzamido)-2-(4-aminophenyl-amino)thiazole-4-carboxamide]	24 nM
CC(=O)Nc1ccc(C(=O)Nc2sc(Nc3cccnc3)nc2C(N)=O)cc1 [Compound A20, 5-(4-acetamidobenzamido)-2-(pyridin-3-ylamino) thiazole-4-carboxamide]	9 nM
COc1ccc(Nc2nc(C(N)=O)c(NC(=O)c3ccc(N4CCN(C)CC4)cc3)s2)cc1 [Compound A22, 2-(4-methoxyphenylamino)-5-[4-(4-methyl-piperazin-1-yl)benzamido]thiazole-4-carboxamide]	15 nM
COc1ccc(Nc2nc(C(N)=O)c(NC(=O)c3ccc(NCCO)cc3)s2)cc1 [Compound A23, 5-[4-(2-hydroxyethylamino)benzamido]-2-(4-methoxyphenylamino)thiazole-4-carboxamide]	8 nM
COc1ccc(Nc2nc(C(N)=O)c(NC(=O)c3ccc(NCCN(C)C)cc3)s2)cc1 [Compound A24, 5-{4-[2-(dimethylamino)ethylamino]benzamido}-2-(4-methoxyphenylamino)thiazole-4-carboxamide]	11 nM
COc1ccc(Nc2nc(C(N)=O)c(NC(=O)c3ccc(NCCN4CCOCC4)cc3)s2)cc1 [Compound A27, 2-(4-methoxyphenylamino)-5-[4-(2-morpholino-ethyl-amino)benzamido]thiazole-4-carboxamide]	9 nM
COc1ccc(Nc2nc(C(N)=O)c(NC(=O)c3ccc(NCCN4CCCC4)cc3)s2)cc1 [Compound A29, 2-(4-methoxyphenylamino)-5-{4-[2-(pyrrolidin-1-yl)ethylamino]benzamido}thiazole-4-carboxamide]	8 nM
COCCNc1ccc(C(=O)Nc2sc(Nc3ccc(OC)cc3)nc2C(N)=O)cc1 [Compound A31, 5-[4-(2-methoxyethylamino)benzamido]-2-(4-methoxyphenylamino)thiazole-4-carboxamide]	10 nM
COc1ccc(Nc2nc(C(N)=O)c(NC(=O)c3ccc(NC(=O)CO)cc3)s2)cc1 [Compound A37, 5-[4-(2-hydroxyacetamido)benzamido]-2-(4-methoxyphenylamino)thiazole-4-carboxamide]	9 nM
COc1ccc(Nc2nc(C(N)=O)c(NC(=O)c3ccc(NC(=O)CN4CCN(C)CC4)cc3)s2)cc1 [Compound A42, 2-(4-methoxyphenylamino)-5-{4-[2-(4-methyl-piperazin-1-yl)acetamido]benzamido}thiazole-4-carboxamide]	18 nM
